How the values were obtained:
OATP1B3 = biological target: T1, OATP1B3 (Homo sapiens, UniProt Q9NPD5); test: Cellular transport assay, HEK-293 cells expressing human OATP1B3; conditions: for TransportTC/TransportMC ratio (net transport ratio): 10 min; for K m / V max: 5 min incubation, concentrations in Table 1
T1 sequence (Q9NPD5 1-702): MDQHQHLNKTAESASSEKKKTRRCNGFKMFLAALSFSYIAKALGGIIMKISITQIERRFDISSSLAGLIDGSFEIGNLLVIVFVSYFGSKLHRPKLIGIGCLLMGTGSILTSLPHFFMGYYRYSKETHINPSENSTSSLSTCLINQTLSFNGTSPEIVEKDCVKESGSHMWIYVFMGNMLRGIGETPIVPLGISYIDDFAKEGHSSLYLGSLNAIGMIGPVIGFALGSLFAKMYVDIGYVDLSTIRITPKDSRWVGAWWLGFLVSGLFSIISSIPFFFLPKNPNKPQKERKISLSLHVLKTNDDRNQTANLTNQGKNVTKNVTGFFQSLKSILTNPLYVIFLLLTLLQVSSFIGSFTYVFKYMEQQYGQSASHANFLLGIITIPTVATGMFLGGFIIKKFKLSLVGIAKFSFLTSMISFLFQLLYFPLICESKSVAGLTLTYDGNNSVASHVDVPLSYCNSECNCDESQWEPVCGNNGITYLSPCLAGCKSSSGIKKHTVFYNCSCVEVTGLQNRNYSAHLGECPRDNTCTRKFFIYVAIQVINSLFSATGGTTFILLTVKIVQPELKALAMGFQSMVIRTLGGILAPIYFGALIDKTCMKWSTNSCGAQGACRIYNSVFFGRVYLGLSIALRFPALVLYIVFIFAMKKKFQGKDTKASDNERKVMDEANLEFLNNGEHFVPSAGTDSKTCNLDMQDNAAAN

human OAT1 = biological target: T2, human OAT1 (Homo sapiens, UniProt Q4U2R8); test: Cellular transport assay, HEK-293 cells expressing human OAT1; conditions: for TransportTC/TransportMC ratio (net transport ratio): 10 min; for K m: human renal basolateral uptake OAT1, 5 min incubation, concentrations in Table 1
T2 sequence (Q4U2R8 1-563): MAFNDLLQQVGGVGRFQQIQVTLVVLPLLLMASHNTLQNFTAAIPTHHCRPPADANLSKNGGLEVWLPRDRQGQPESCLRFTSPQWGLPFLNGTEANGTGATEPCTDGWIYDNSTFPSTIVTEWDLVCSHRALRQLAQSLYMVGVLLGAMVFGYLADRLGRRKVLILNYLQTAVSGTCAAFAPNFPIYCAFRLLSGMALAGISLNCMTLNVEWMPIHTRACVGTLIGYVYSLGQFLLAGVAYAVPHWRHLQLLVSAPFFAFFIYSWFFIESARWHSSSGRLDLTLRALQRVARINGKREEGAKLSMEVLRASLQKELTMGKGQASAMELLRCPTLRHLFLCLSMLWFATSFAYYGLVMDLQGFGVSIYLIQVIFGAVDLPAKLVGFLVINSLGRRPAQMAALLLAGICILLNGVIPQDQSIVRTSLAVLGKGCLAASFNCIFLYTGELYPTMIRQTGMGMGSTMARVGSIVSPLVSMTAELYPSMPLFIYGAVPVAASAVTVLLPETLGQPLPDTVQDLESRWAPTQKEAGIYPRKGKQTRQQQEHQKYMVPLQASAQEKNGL
Procedure: Briefly, HEK-293 cells were grown, at 37°C and 5% CO2, in Dulbecco’s modified Eagle’s medium, which was fortified with 10% fetal bovine serum, 1% minimal essential medium nonessential amino acids, and 1% antibiotic-antimycotic solution. A day before transfection, cells were seeded onto 24-well poly-D-lysine-coated plates at a density of 2 × 10^5 cells per well. After incubation at 37°C and 5% CO2 for 24 h, the expression plasmid and the empty vector were introduced separately into the HEK293 cells with Lipofectamine 2000 transfection reagent (Invitrogen, Carlsbad, CA, United States), according to the manufacturer’s protocol to yield transporter-expressing cells and mock cells, respectively.
Transport studies were performed 48 h after the transfection. […] Differential uptake between the transfected cells and mock cells was defined as net transport ratio (TransportTC/TransportMC ratio), where TransportTC and TransportMC are the transport rates of a test Danshen compound into transfected and mock cells, respectively. […] The determination was performed under linear uptake conditions by incubation for 5 min. Table 1 summarizes the final concentrations of the test Danshen compounds for different transporters. All the incubation samples were analyzed by liquid chromatography/mass spectrometry.
GraFit software (version 5.0; Erithacus Software Ltd, Surrey, United Kingdom) was used to determine the K m and V max values by nonlinear regression analysis of initial transport rates as a function of substrate concentration.

[1] = Danshen phenolic acid at 100 μM final concentration, human OATP1B3-transfected vs mock cells
[2] = human hepatic sinusoidal uptake OATP1B3
[3] = human, HEK-293 cells expressing human OATP1B3 (vs mock cells)
[4] = Danshen phenolic acid at 100 μM final concentration, human OAT1-transfected vs mock cells

| Compound | substrate of human OATP1B3 (OATP1B3) | TransportTC/TransportMC ratio (net transport ratio) (OATP1B3; [1]) | K m (OATP1B3; [2]) | V max (OATP1B3; [2]) | microsomal CLint (OATP1B3; [3]) | TransportTC/TransportMC ratio (net transport ratio) (human OAT1; [4]) | substrate of human OAT1 (human OAT1) | microsomal CLint (human OAT1; human) | K m (human OAT1) | TransportTC/TransportMC ratio (net transport ratio) (OATP1B3; human, 100 μM) | microsomal CLint (OATP1B3; human, other cell line) | TransportTC/TransportMC ratio (net transport ratio) (human OAT1; human, 100 μM) | microsomal CLint (human OAT1; human, other cell line) | CLint (OATP1B3; [2]) |
| --- | --- | --- | --- | --- | --- | --- | --- | --- | --- | --- | --- | --- | --- | --- |
| O=C(/C=C/c1ccc(O)c2c1[C@H](C(=O)O)[C@@H](c1ccc(O)c(O)c1)O2)O[C@H](Cc1ccc(O)c(O)c1)C(=O)O [Lithospermic acid, lithospermic acid] | substrates | 8.02 ± 0.52 | 182 ± 26 µM | 9.59 ± 0.51 pmol/min/mg protein | 0.05 µL/min/mg | 2.09 ± 0.89 |  |  |  |  |  |  |  |  |
| O=C(O)c1ccc(O)c(O)c1 [Protocatechuic acid, protocatechuic acid] |  | 0.75 ± 0.09 |  |  |  | 53.1 ± 3.9 | substrates | 6.43 µL/min/mg | 37.6 ± 2.5 µM |  |  |  |  |  |
| O=C(/C=C/c1ccc(O)c(O)c1)O[C@H](Cc1ccc(O)c(O)c1)C(=O)O [Rosmarinic acid, rosmarinic acid] | substrates |  |  |  |  |  | substrates |  | 70.8 ± 6.4 µM | 7.28 ± 0.58 | 0.09 µL/min/mg | 46.8 ± 10.9 | 2.55 µL/min/mg |  |
| O=C(/C=C/c1ccc(O)c(O)c1/C=C/c1ccc(O)c(O)c1)O[C@H](Cc1ccc(O)c(O)c1)C(=O)O [Salvianolic acid A, salvianolic acid A] | not a substrate |  |  |  |  |  |  |  |  | 1.02 ± 0.31 |  | 1.02 ± 0.14 |  |  |
| O=C(O)Cc1c(/C=C/C(=O)O[C@H](Cc2ccc(O)c(O)c2)C(=O)O)ccc(O)c1O [Salvianolic acid D, salvianolic acid D] | substrates | 5.83 ± 0.49 | 570 ± 79 µM | 98.5 ± 4.8 pmol/min/mg protein | 0.17 µL/min/mg | 11.7 ± 2.4 | substrates | 2.08 µL/min/mg | 18.1 ± 2.3 µM |  |  |  |  |  |
| O=C(O)C(O)Cc1ccc(O)c(O)c1 (centres unmarked) [Tanshinol, tanshinol] |  |  |  |  |  |  |  |  | 98.9 ± 7.1 µM |  |  |  | 10.5 µL/min/mg |  |
| salvianolic acid B | substrates | 16.2 ± 0.6 | 13.0 ± 1.6 µM | 11.0 ± 0.4 pmol/min/mg protein |  | 1.21 ± 0.14 |  |  |  |  |  |  |  | 0.85 μL/min/mg protein |

Source: PMC9127186, “Molecular Basis Underlying Hepatobiliary and Renal Excretion of Phenolic Acids of Salvia miltiorrhiza Roots (Danshen)” (Frontiers in Pharmacology, 2022)
